Measured values: PubChem BioAssay AID256 (DTP/NCI, 2004)
Where “and” joins values, the source holds several entries; their conditions need not be identical. Equal entries are not always repeated. Toxic doses and inconclusive results are not listed.

System: CD2F1 mice, L1210 leukemia ip, survival T/C
Assay: NCI In Vivo Anticancer Drug Screen. Data for tumor model L1210 Leukemia (intraperitoneal) in CD2F1 (CDF1) mice
Conditions: higher = longer survival
Method in brief: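 Activity against a transplanted murine tumor was judged by comparing the compound group with a vehicle group. The outcome in the treated animals was divided by that in the controls.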

[1] = endpoint: mean survival time, dose: 50.0 mg/kg/injection, schedule: Q01DX009 (ip), vehicle: saline with Tween-80
[2] = endpoint: mean survival time, dose: 100.0 mg/kg/injection, schedule: Q01DX001 (ip), vehicle: saline with Tween-80
[3] = endpoint: mean survival time, dose: 100.0 mg/kg/injection, schedule: Q01DX009 (ip), vehicle: saline with Tween-80
[4] = endpoint: mean survival time, dose: 100.0 mg/kg/injection, schedule: Q04DX003 (ip), vehicle: saline with Tween-80
[5] = endpoint: mean survival time, dose: 200.0 mg/kg/injection, schedule: Q01DX009 (ip), vehicle: saline with Tween-80
[6] = endpoint: mean survival time, dose: 100.0 mg/kg/injection, schedule: Q01DX001 (ip), vehicle: saline
[7] = endpoint: mean survival time, dose: 100.0 mg/kg/injection, schedule: Q04DX002 (ip), vehicle: saline with Tween-80
[8] = endpoint: mean survival time, dose: 200.0 mg/kg/injection, schedule: Q04DX002 (ip), vehicle: saline with Tween-80
[9] = endpoint: mean survival time, dose: 400.0 mg/kg/injection, schedule: Q04DX002 (ip), vehicle: saline with Tween-80

Q: With `Clc1[nH]nc2ccccc12` as the compound, how does the T/C (endpoint: mean survival time, dose: 12.5 mg/kg/injection, schedule: Q01DX009 (ip), vehicle: saline with Tween-80) read?
A: 102 % of control

Q: What about the T/C (endpoint: mean survival time, dose: 12.5 mg/kg/injection, schedule: Q04DX003 (ip), vehicle: saline with Tween-80) of the same compound?
A: 98 % of control

Q: What about the T/C (endpoint: mean survival time, dose: 25.0 mg/kg/injection, schedule: Q01DX001 (ip), vehicle: saline with Tween-80) of the same compound?
A: 90 % of control

Q: And the T/C (endpoint: mean survival time, dose: 25.0 mg/kg/injection, schedule: Q01DX009 (ip), vehicle: saline with Tween-80)?
A: 105 % of control

Q: And the T/C (endpoint: mean survival time, dose: 25.0 mg/kg/injection, schedule: Q04DX003 (ip), vehicle: saline with Tween-80)?
A: 93 % of control and 97 % of control

Q: What about the T/C (endpoint: mean survival time, dose: 50.0 mg/kg/injection, schedule: Q01DX001 (ip), vehicle: saline with Tween-80) of the same compound?
A: 98 % of control

Q: And the T/C [1]?
A: 89 % of control

Q: And the T/C (endpoint: mean survival time, dose: 50.0 mg/kg/injection, schedule: Q04DX003 (ip), vehicle: saline with Tween-80)?
A: 101 % of control

Q: And the T/C [2]?
A: 93 % of control

Q: What about the T/C [3] of the same compound?
A: 101 % of control

Q: What about the T/C [4] of the same compound?
A: 98 % of control and 97 % of control

Q: And the T/C [5]?
A: 89 % of control

Q: And the T/C (endpoint: mean survival time, dose: 200.0 mg/kg/injection, schedule: Q04DX003 (ip), vehicle: saline with Tween-80)?
A: 100 % of control

Q: And the T/C (endpoint: mean survival time, dose: 400.0 mg/kg/injection, schedule: Q04DX003 (ip), vehicle: saline with Tween-80)?
A: 86 % of control

Q: How did the T/C (endpoint: median survival time, dose: 1.25 mg/kg/injection, schedule: Q04DX003 (ip), vehicle: water) turn out when `[Cl][Pt+2][Cl].[NH-]C(CO)C([NH-])CO` (centres undefined) was run?
A: 102 % of control

Q: What about the T/C (endpoint: median survival time, dose: 2.5 mg/kg/injection, schedule: Q04DX003 (ip), vehicle: water) of the same compound?
A: 102 % of control

Q: What about the T/C (endpoint: median survival time, dose: 5.0 mg/kg/injection, schedule: Q04DX003 (ip), vehicle: water) of the same compound?
A: 115 % of control

Q: And the T/C (endpoint: median survival time, dose: 12.5 mg/kg/injection, schedule: Q04DX003 (ip), vehicle: distilled water + Tween-80)?
A: 156 % of control

Q: And the T/C (endpoint: median survival time, dose: 20.0 mg/kg/injection, schedule: Q04DX003 (ip), vehicle: water)?
A: 93 % of control

Q: `CCCCCOc1nccc(N)n1` was tested. Which T/C [2] did it give?
A: 98 % of control

Q: What does the source list for `O=S(=O)(SC1=NCCN1)c1ccccc1`?
A: T/C [6]: 101 % of control; T/C (endpoint: mean survival time, dose: 200.0 mg/kg/injection, schedule: Q01DX001 (ip), vehicle: saline): 97 % of control; T/C (endpoint: mean survival time, dose: 400.0 mg/kg/injection, schedule: Q01DX001 (ip), vehicle: saline): 101 % of control

Q: Which T/C [4] does the source give for `O=C(CCl)NCCCNC(=O)CCl` here?
A: 105 % of control

Q: Which T/C (endpoint: mean survival time, dose: 50.0 mg/kg/injection, schedule: Q04DX002 (ip), vehicle: saline with Tween-80) does the source give for `N#CCCC#N` (tested in a mixture with another compound) here?
A: 96 % of control and 100 % of control

Q: What about the T/C [7] of the same compound?
A: 96 % of control and 107 % of control

Q: And the T/C [8]?
A: 100 % of control and 96 % of control

Q: And the T/C [9]?
A: 92 % of control and 100 % of control

Q: Which results are given for `CCCCCCCCCCCCCCCC(=O)Nc1ccccc1CC`?
A: T/C [7]: 91 % of control; T/C [8]: 95 % of control; T/C [9]: 103 % of control

Q: For `Cc1nnn2ccccc12`, which T/C [6] is on record?
A: 95 % of control

Q: With `Cc1ccc(NC(=O)N2CCN(C)CC2)cc1[N+](=O)[O-]` as the compound, how does the T/C [1] read?
A: 94 % of control

Q: What about the T/C [3] of the same compound?
A: 90 % of control

Q: What about the T/C [5] of the same compound?
A: 94 % of control

Q: Which T/C (endpoint: mean survival time, dose: 100.0 mg/kg/injection, schedule: Q04DX003 (ip), vehicle: saline) does the source give for `O=C(O)C1=CC(O)C(O)C(O)C1` (centres undefined) here?
A: 102 % of control

Q: What about the T/C (endpoint: mean survival time, dose: 200.0 mg/kg/injection, schedule: Q04DX003 (ip), vehicle: saline) of the same compound?
A: 96 % of control

Q: What about the T/C (endpoint: mean survival time, dose: 400.0 mg/kg/injection, schedule: Q04DX003 (ip), vehicle: saline) of the same compound?
A: 90 % of control

Q: Which T/C [2] does the source give for `O=c1[nH]c(NCCCCc2ccccc2)c(Br)c(=O)[nH]1` here?
A: 91 % of control

Q: With `Cc1cc(C)c([S-])c(C)c1.[Cu+]` as the compound, how does the T/C (endpoint: mean survival time, dose: 4.7 mg/kg/injection, schedule: Q04DX003 (ip), vehicle: saline) read?
A: 94 % of control

Q: And the T/C (endpoint: mean survival time, dose: 9.4 mg/kg/injection, schedule: Q04DX003 (ip), vehicle: saline)?
A: 94 % of control

Q: For `O=C(Cc1ccccc1)NC(CSSCC(NC(=O)Cc1ccccc1)C(=O)O)C(=O)O` (centres undefined), which T/C [3] is on record?
A: 101 % of control

Q: What about the T/C [5] of the same compound?
A: 98 % of control

Q: What about the T/C (endpoint: mean survival time, dose: 400.0 mg/kg/injection, schedule: Q01DX009 (ip), vehicle: saline with Tween-80) of the same compound?
A: 93 % of control

Q: `O=[N+]([O-])c1cccc(C2=NNC(c3cccc([N+](=O)[O-])c3)=NN2)c1` was tested. Which T/C (endpoint: median survival time, dose: 50.0 mg/kg/injection, schedule: Q01DX001 (ip), vehicle: saline with Tween-80) did it give?
A: 88 % of control

Q: And the T/C (endpoint: median survival time, dose: 100.0 mg/kg/injection, schedule: Q01DX001 (ip), vehicle: saline with Tween-80)?
A: 92 % of control

Q: And the T/C (endpoint: median survival time, dose: 200.0 mg/kg/injection, schedule: Q01DX001 (ip), vehicle: saline with Tween-80)?
A: 94 % of control

Q: And the T/C (endpoint: median survival time, dose: 400.0 mg/kg/injection, schedule: Q01DX001 (ip), vehicle: saline with Tween-80)?
A: 95 % of control

Q: What about the T/C (endpoint: median survival time, dose: 800.0 mg/kg/injection, schedule: Q01DX001 (ip), vehicle: saline with Tween-80) of the same compound?
A: 98 % of control
